Test results published in the supplement of paper PMC10627819.

Columns and labels:
B. subtilis 168 = experiment: fitness (endpoint OD595 vs no drug) (fraction); higher = more growth
Summary of the method: (§1)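 Bacterial fitness was scored as optical density at the stationary-phase transition relative to the robust mean of no-drug control wells. Scores are capped at 1. The growth data were OD595 readings every 30 min for 14 h at 37 °C, background-subtracted against the first reading, from 384-well plates inoculated at OD595 0.01 in TSB, LB Lennox or CY.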

S. pneumoniae D39V = experiment: as above
Summary of the method: as §1
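Note: OD595 on entry to stationary phase over no-drug wells; at most 1.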

O=C(O)[C@H]1/C(=C/CO)O[C@@H]2CC(=O)N21 [Clavulanic acid] + CC(=O)NC[C@H]1CN(c2ccc(N3CCOCC3)c(F)c2)C(=O)O1 [Linezolid]
B. subtilis 168, partner 0.0625 µg/mL, one replicate
Conditions	fitness
first compound 1.5 µg/mL	0.85
first compound 3 µg/mL	0.773
first compound 6 µg/mL	0.789

fitness
Conditions	partner 0.105 µg/mL	partner 0.125 µg/mL	partner 0.2 µg/mL	partner 0.21 µg/mL	partner 0.25 µg/mL	partner 0.4 µg/mL	partner 0.42 µg/mL	partner 0.5 µg/mL	partner 0.8 µg/mL
B. subtilis 168, first compound 1.5 µg/mL	–	0.659	–	–	0.247	–	–	0.0633	–
B. subtilis 168, first compound 3 µg/mL	–	0.597	–	–	0.184	–	–	0.025	–
B. subtilis 168, first compound 6 µg/mL	–	0.585	–	–	0.151	–	–	0.0316	–
S. pneumoniae D39V, first compound 0.5 µg/mL	0.808	–	0.474	0.658	–	0.261	0.453	–	0.075
S. pneumoniae D39V, first compound 1 µg/mL	0.801	–	0.531	0.67	–	0.363	0.443	–	0.226
S. pneumoniae D39V, first compound 2 µg/mL	0.749	–	0.392	0.567	–	0.22	0.238	–	0.102

O=C(O)[C@H]1/C(=C/CO)O[C@@H]2CC(=O)N21 [Clavulanic acid] + CC[C@H]1OC(=O)[C@H](C)[C@@H](O[C@H]2C[C@@](C)(OC)[C@@H](O)[C@H](C)O2)[C@H](C)[C@@H](O[C@@H]2O[C@H](C)C[C@H](N(C)C)[C@H]2O)[C@](C)(OC)C[C@@H](C)C(=O)[C@H](C)[C@@H](O)[C@]1(C)O [Clarithromycin]
fitness, S. pneumoniae D39V, one replicate
Conditions	first compound 0.5 µg/mL	first compound 1 µg/mL	first compound 2 µg/mL
partner 0.007812 µg/mL	0.855	0.828	0.801
partner 0.01562 µg/mL	0.829	0.792	0.769
partner 0.03125 µg/mL	0.597	0.574	0.509

fitness, S. pneumoniae D39V
Conditions	partner 0.0625 µg/mL	partner 0.07 µg/mL	partner 0.125 µg/mL	partner 0.14 µg/mL	partner 0.25 µg/mL	partner 0.28 µg/mL
first compound 0.5 µg/mL	0.486	0.103	0.232	0.0628	0.0756	0.0401
first compound 1 µg/mL	0.541	0.088	0.361	0.0781	0.209	0.0556
first compound 2 µg/mL	0.325	0.0584	0.191	0.062	0.0711	0.0369

O=C(O)[C@H]1/C(=C/CO)O[C@@H]2CC(=O)N21 [Clavulanic acid] + CN(C)[C@@H]1C(O)=C(C(N)=O)C(=O)[C@@]2(O)C(O)=C3C(=O)c4c(O)ccc(Cl)c4[C@@](C)(O)[C@H]3C[C@@H]12 [Chlortetracycline]
fitness
Conditions	partner 0.012 µg/mL	partner 0.024 µg/mL	partner 0.0475 µg/mL	partner 0.048 µg/mL	partner 0.095 µg/mL	partner 0.19 µg/mL	partner 0.375 µg/mL	partner 0.75 µg/mL	partner 1.5 µg/mL
B. subtilis 168, first compound 1.5 µg/mL	–	–	0.873	–	0.754	0.58	–	–	–
B. subtilis 168, first compound 3 µg/mL	–	–	0.838	–	0.708	0.512	–	–	–
B. subtilis 168, first compound 6 µg/mL	–	–	0.745	–	0.582	0.422	–	–	–
S. pneumoniae D39V, first compound 0.5 µg/mL	0.906	0.699	–	0.306	–	–	0.0436	0.0585	0.0458
S. pneumoniae D39V, first compound 1 µg/mL	0.821	0.686	–	0.366	–	–	0.0323	0.0545	0.0428
S. pneumoniae D39V, first compound 2 µg/mL	0.618	0.462	–	0.246	–	–	0.0402	0.0396	0.0545

O=C(O)[C@H]1/C(=C/CO)O[C@@H]2CC(=O)N21 [Clavulanic acid] + CN(C)C(=O)C(CCN1CCC(O)(c2ccc(Cl)cc2)CC1)(c1ccccc1)c1ccccc1 [Loperamide]
fitness
Conditions	first compound 0.5 µg/mL	first compound 1 µg/mL	first compound 1.5 µg/mL	first compound 2 µg/mL	first compound 3 µg/mL	first compound 6 µg/mL
B. subtilis 168, partner 25 µg/mL	–	–	0.848	–	0.742	0.614
S. pneumoniae D39V, partner 17.14 µg/mL	0.954	0.95	–	0.836	–	–
S. pneumoniae D39V, partner 20 µg/mL	≥ 1	≥ 1	–	0.89	–	–
S. pneumoniae D39V, partner 34.28 µg/mL	0.931	0.913	–	0.75	–	–
S. pneumoniae D39V, partner 40 µg/mL	≥ 1	≥ 1	–	0.926	–	–
S. pneumoniae D39V, partner 80 µg/mL	0.0391	0.185	–	0.0465	–	–

S. pneumoniae D39V, partner 68.57 µg/mL, one replicate
Conditions	fitness
first compound 0.5 µg/mL	0.952
first compound 1 µg/mL	0.944
first compound 2 µg/mL	0.849

Clc1ccc(COC(Cn2ccnc2)c2ccc(Cl)cc2Cl)c(Cl)c1 (centres undefined) [Miconazole] + CO[C@@]12[C@H](COC(N)=O)C3=C(C(=O)C(C)=C(N)C3=O)N1C[C@@H]1N[C@@H]12 [Mitomycin C]
fitness, S. pneumoniae D39V
Conditions	first compound 1.073 µg/mL	first compound 1.25 µg/mL	first compound 2.145 µg/mL	first compound 2.5 µg/mL	first compound 4.29 µg/mL	first compound 5 µg/mL
partner 0.001075 µg/mL	–	0.983	–	0.979	–	0.95
partner 0.002 µg/mL	0.882	–	0.883	–	0.779	–
partner 0.00215 µg/mL	–	0.88	–	0.898	–	0.907
partner 0.004 µg/mL	0.854	–	0.826	–	0.742	–
partner 0.0043 µg/mL	–	0.786	–	0.777	–	0.812
partner 0.008 µg/mL	0.718	–	0.748	–	0.64	–

O=C(O)[C@H]1/C(=C/CO)O[C@@H]2CC(=O)N21 [Clavulanic acid] + CO[C@H]1/C=C/O[C@@]2(C)Oc3c(C)c(O)c4c(O)c(c(/C=N/N5CCN(C)CC5)c(O)c4c3C2=O)NC(=O)/C(C)=C\C=C\[C@H](C)[C@H](O)[C@@H](C)[C@@H](O)[C@@H](C)[C@H](OC(C)=O)[C@@H]1C [Rifampicin]
fitness, S. pneumoniae D39V
Conditions	first compound 0.5 µg/mL	first compound 1 µg/mL	first compound 2 µg/mL
partner 0.025 µg/mL	≥ 1	0.919	–
partner 0.1 µg/mL	–	0.421	0.239

S. pneumoniae D39V, partner 0.2 µg/mL, one replicate
Conditions	fitness
first compound 0.5 µg/mL	0
first compound 1 µg/mL	0
first compound 2 µg/mL	0

O=C(O)[C@H]1/C(=C/CO)O[C@@H]2CC(=O)N21 [Clavulanic acid] + C[C@H]1c2cccc(O)c2C(=O)C2=C(O)[C@]3(O)C(=O)C(C(N)=O)=C(O)[C@@H](N(C)C)[C@@H]3[C@@H](O)[C@@H]21 [Doxycycline]
Conditions	fitness
B. subtilis 168, first compound 1.5 µg/mL, partner 0.02 µg/mL	0.862
B. subtilis 168, first compound 1.5 µg/mL, partner 0.04 µg/mL	0.762
B. subtilis 168, first compound 3 µg/mL, partner 0.02 µg/mL	0.852
B. subtilis 168, first compound 3 µg/mL, partner 0.04 µg/mL	0.721
B. subtilis 168, first compound 6 µg/mL, partner 0.02 µg/mL	0.728
B. subtilis 168, first compound 6 µg/mL, partner 0.04 µg/mL	0.628
B. subtilis 168, first compound 6 µg/mL, partner 0.08 µg/mL	0.375
S. pneumoniae D39V, first compound 0.5 µg/mL, partner 0.0155 µg/mL	0.929
S. pneumoniae D39V, first compound 1 µg/mL, partner 0.0155 µg/mL	0.892
S. pneumoniae D39V, first compound 1 µg/mL, partner 0.031 µg/mL	0.615
S. pneumoniae D39V, first compound 1 µg/mL, partner 0.062 µg/mL	0.429
S. pneumoniae D39V, first compound 2 µg/mL, partner 0.0155 µg/mL	0.73
S. pneumoniae D39V, first compound 2 µg/mL, partner 0.031 µg/mL	0.45
S. pneumoniae D39V, first compound 2 µg/mL, partner 0.062 µg/mL	0.281

fitness, S. pneumoniae D39V, one replicate
Conditions	first compound 0.5 µg/mL	first compound 1 µg/mL	first compound 2 µg/mL
partner 0.003875 µg/mL	≥ 1	0.985	0.9
partner 0.00775 µg/mL	0.998	0.964	0.895

O=C(O)[C@H]1/C(=C/CO)O[C@@H]2CC(=O)N21 [Clavulanic acid] + C[C@H]1COc2c(N3CCN(C)CC3)c(F)cc3c(=O)c(C(=O)O)cn1c23 [Levofloxacin]
fitness, B. subtilis 168, one replicate
Conditions	first compound 1.5 µg/mL	first compound 3 µg/mL	first compound 6 µg/mL
partner 0.001 µg/mL	0.908	0.852	0.776
partner 0.0078 µg/mL	0.919	0.872	0.82

Conditions	fitness
B. subtilis 168, first compound 1.5 µg/mL, partner 0.002 µg/mL	0.836
B. subtilis 168, first compound 1.5 µg/mL, partner 0.0039 µg/mL	0.821
B. subtilis 168, first compound 1.5 µg/mL, partner 0.0312 µg/mL	0.0412
B. subtilis 168, first compound 1.5 µg/mL, partner 0.0625 µg/mL	0.0486
B. subtilis 168, first compound 1.5 µg/mL, partner 0.125 µg/mL	0.0536
B. subtilis 168, first compound 3 µg/mL, partner 0.002 µg/mL	0.829
B. subtilis 168, first compound 3 µg/mL, partner 0.0039 µg/mL	0.81
B. subtilis 168, first compound 3 µg/mL, partner 0.0312 µg/mL	0.0294
B. subtilis 168, first compound 3 µg/mL, partner 0.0625 µg/mL	0.0351
B. subtilis 168, first compound 3 µg/mL, partner 0.125 µg/mL	0.0411
B. subtilis 168, first compound 6 µg/mL, partner 0.002 µg/mL	0.734
B. subtilis 168, first compound 6 µg/mL, partner 0.0039 µg/mL	0.72
B. subtilis 168, first compound 6 µg/mL, partner 0.0312 µg/mL	0.0384
B. subtilis 168, first compound 6 µg/mL, partner 0.0625 µg/mL	0.0352
B. subtilis 168, first compound 6 µg/mL, partner 0.125 µg/mL	0.0346
S. pneumoniae D39V, first compound 0.5 µg/mL, partner 0.1725 µg/mL	0.948
S. pneumoniae D39V, first compound 0.5 µg/mL, partner 0.2 µg/mL	0.914
S. pneumoniae D39V, first compound 0.5 µg/mL, partner 0.345 µg/mL	0.881
S. pneumoniae D39V, first compound 0.5 µg/mL, partner 0.4 µg/mL	0.681
S. pneumoniae D39V, first compound 0.5 µg/mL, partner 0.69 µg/mL	0.61
S. pneumoniae D39V, first compound 0.5 µg/mL, partner 0.8 µg/mL	0.134
S. pneumoniae D39V, first compound 1 µg/mL, partner 0.1725 µg/mL	0.927
S. pneumoniae D39V, first compound 1 µg/mL, partner 0.2 µg/mL	0.805
S. pneumoniae D39V, first compound 1 µg/mL, partner 0.345 µg/mL	0.842
S. pneumoniae D39V, first compound 1 µg/mL, partner 0.4 µg/mL	0.599
S. pneumoniae D39V, first compound 1 µg/mL, partner 0.8 µg/mL	0.242
S. pneumoniae D39V, first compound 2 µg/mL, partner 0.1725 µg/mL	0.841
S. pneumoniae D39V, first compound 2 µg/mL, partner 0.2 µg/mL	0.623
S. pneumoniae D39V, first compound 2 µg/mL, partner 0.345 µg/mL	0.735
S. pneumoniae D39V, first compound 2 µg/mL, partner 0.4 µg/mL	0.431
S. pneumoniae D39V, first compound 2 µg/mL, partner 0.69 µg/mL	0.423
S. pneumoniae D39V, first compound 2 µg/mL, partner 0.8 µg/mL	0.103

O=C(O)[C@H]1/C(=C/CO)O[C@@H]2CC(=O)N21 [Clavulanic acid] + C/C(=C\C(=O)OCCCCCCCCC(=O)O)C[C@@H]1OC[C@H](C[C@@H]2O[C@H]2[C@@H](C)[C@H](C)O)[C@@H](O)[C@H]1O [Pseudomonic acid]
fitness, S. pneumoniae D39V
Conditions	first compound 0.5 µg/mL	first compound 1 µg/mL	first compound 2 µg/mL
partner 0.03 µg/mL	0.921	0.906	0.832
partner 0.06 µg/mL	0.769	0.803	0.656
partner 0.12 µg/mL	0.408	0.519	0.277

O=C(O)[C@H]1/C(=C/CO)O[C@@H]2CC(=O)N21 [Clavulanic acid] + COc1cc(Cc2cnc(N)nc2N)cc(OC)c1OC [Trimethoprim]
fitness, B. subtilis 168, one replicate
Conditions	partner 0.1 µg/mL	partner 0.2 µg/mL	partner 0.4 µg/mL	partner 1 µg/mL	partner 2 µg/mL
first compound 1.5 µg/mL	0.89	0.757	0.559	0.507	0.392
first compound 3 µg/mL	0.853	0.693	0.537	0.455	0.388
first compound 6 µg/mL	0.728	0.687	0.482	0.421	0.273

fitness, B. subtilis 168
Conditions	first compound 1.5 µg/mL	first compound 3 µg/mL	first compound 6 µg/mL
partner 0.125 µg/mL	0.647	0.618	0.55
partner 0.25 µg/mL	0.511	–	–
partner 0.5 µg/mL	0.505	0.494	0.457
